Consider three molecules from US11147795B2, “Neuroprotective compounds and methods of use” (ARIZONA BOARD OF REGENTS ON BEHALF OF THE UNIVERSITY OF …, priority 2014, dated 2021).

In this assay the test system is larvae expressing TDP-43 in motor neurons. The assay is described as follows: Larval turning assay (locomotor function). Format: in vivo, Drosophila. To be noted: for locomotor function measured by larval turning assays: TDP-43 expressed in motor neurons, FIGS. 1-3; for locomotor function: Student's t-test, N>20 larvae/genotype. The procedure:
Drosophila genetics. TDP-43 was expressed in motor neurons using the GAL4-UAS bipartite expression system. D42 GAL4 was used as an expression driver and UAS-TDP-43 YFP trasgenics were used as responder lines (Estes, et al., 2011, Hum. Mol. Genet).
Locomotor function. Locomotion was assessed using quantitative larval turning assays. Crosses were carried out at 25° C. and wandering third instar larvae were placed on a grape juice plate at room temperature. After a 30 second acclimation period, larvae were gently turned ventral side up. They were observed until they turned over (dorsal side up) and began making a forward motion. The time it took to complete this task was recorded for at least 20 larvae per genotype.
Statistical analyses. Student's t-tests were performed to determine statistical significance.

The mark [1] stands for this setting: larvae expressing TDPG298S in motor neurons.
Setting [2] is: larvae expressing TDPWT in motor neurons.

The structures appear in SMILES notation.

Regarding `CCOC(=O)C1=CCN([S@@+]([O-])C(C)(C)C)[C@H]1c1ccsc1` [CH-III-31], the “locomotor function measured by larval turning assays” value (from here on “locomotor function measured”) is “significant improvement of locomotor function”. In addition, the locomotor function result under setting [1] is listed as “improves locomotor function”. Besides, the locomotor function result under setting [2] is reported as “improves locomotor function”.

Take `COc1cc2c(C(=O)C(F)(F)F)c(C(F)(F)F)[nH]c2cc1F` [EV-3-298]: the “locomotor function measured” value is on record as “significant improvement of locomotor function”. In addition, the locomotor function entry under setting [1] is “improves locomotor function”. Besides, the locomotor function entry under setting [2] is on record as “improves locomotor function”.

Turning to `CCOC(=O)C1=CCN([S@+]([O-])C(C)(C)C)[C@@H]1C[C@@H](C)CCC=C(C)C` [CH-I-108], the “locomotor function measured” value is listed as “significant improvement of locomotor function”. For the same molecule, the locomotor function entry under setting [1] is on record as “improves locomotor function”. The locomotor function result under setting [2] is listed as “improves locomotor function”.
